The structures appear in SMILES notation. ≈ marks a conversion by molar mass, not a printed value.

Assay type in all cases: cell-based
What all share (conditions): clinical isolate, Mueller-Hinton broth

Test [1] concerns Enterococcus faecalis 848 (VRE). In words: Broth microdilution MIC, EFC 848. The protocol: (§1) Antibacterial activity in vitro is investigated by broth microdilution method in Meuller-Hinton broth as recommended by NCCLS. All strains tested are clinical isolates either sensitive or resistant to natural glycopeptides. MIC values were determined using the CLSI-recommended broth microdilution procedure (Clinical and Laboratory Standards Institute, Methods for Dilution Antimicrobial Susceptibility Tests for Bacteria That Grow Aerobically; Approved Standard-Seventh Edition). Automated liquid handlers (Multidrop 384, Labsystems, Helsinki, Finland; Biomek 2000 and Multimek 96, Beckman Coulter, Fullerton Calif.) were used to conduct serial dilutions and liquid transfers.
(In general: Broth dilution looks for growth in wells or tubes with falling amounts of substance.)

Test [2] relates to Enterococcus faecium 752 (VRE). As to the kind of experiment: Broth microdilution MIC, EFCM 752. The protocol: as §1
The test system of test [3] is Staphylococcus epidermidis 831 (MRSE). In words: Broth microdilution MIC, SE 831. Details: unit not given beside the values. How it is done: as §1
Test [4] deals with Streptococcus pneumoniae 1195 (penicillin sensitive). In words: Broth microdilution MIC, SPNE 1195. How it is done: as §1
Test [5] relates to Streptococcus pyogenes 712 (penicillin sensitive). As to the kind of experiment: Broth microdilution MIC, SPYO 712. How it is done: as §1
The test system of test [6] is Staphylococcus epidermidis 835 (MSSE). As to the kind of experiment: Broth microdilution MIC, SE 835. Details: unit not given beside the values. How it is done: as §1
Test [7] has as its system Enterococcus faecalis 101 (vancomycin sensitive). As to the kind of experiment: Broth microdilution MIC, EFC 101. How it is done:
as §1

Test [8] has as its system Staphylococcus aureus 100 (MSSA). As to the kind of experiment: Broth microdilution MIC, SA 100. How it is done:
as §1

Test [9] has as its system Staphylococcus aureus 2012 (VISA). As to the kind of experiment: Broth microdilution MIC, SA 2012. How it is done:
as §1

In test [10] the test system is Enterococcus faecium 750 (vancomycin sensitive). As to the kind of experiment: Broth microdilution MIC, EFCM 750. The protocol: as §1
The subject of test [11] is Staphylococcus aureus 757 (MRSA). As to the kind of experiment: Broth microdilution MIC, SA 757. The protocol:
as §1

In the case of `CCCCCCCCNC(=O)NC(=O)C[C@@H]1NC(=O)[C@H](NC(=O)[C@@H](CC(C)C)NC)[C@H](O)c2ccc(c(Cl)c2)Oc2cc3cc(c2OC2OC(CO)C(O)C(O)C2O)Oc2ccc(cc2Cl)[C@@H](O)[C@H]2NC(=O)[C@H](NC(=O)[C@@H]3NC1=O)c1ccc(O)c(c1)-c1c(O)cc(O)cc1[C@@H](C(=O)NC1C3CC4CC(C3)CC1C4)NC2=O` (stereo partly drawn) [Compound 29], in [1], the MIC, E FC 848 turned out to be 2 µg/mL (≈ 1.25 µM). For the same molecule, the MIC, E FCM 752 in test [2] is 2 µg/mL (≈ 1.25 µM). The “MIC, SE 831” value in test [3] is 0.5. In [4], this molecule yielded an MIC, S PNE 1195 of 0.12 µg/mL (≈ 0.0753 µM). The MIC, S PYO 712 in test [5] stood at 0.12 µg/mL (≈ 0.0753 µM). Further, the “MIC, SE 835” value in [6] worked out at 1. This molecule also had an MIC, E FC 101 in test [7] of 1 µg/mL (≈ 0.627 µM). The molecule also registered an MIC, SA 100 in [8] of 2 µg/mL (≈ 1.25 µM). This molecule also had an MIC, SA 2012 in test [9] of 1 µg/mL (≈ 0.627 µM). For the same molecule, the MIC, E FCM 750 in test [10] is 0.5 µg/mL (≈ 0.314 µM). The MIC, SA 757 in [11] turned out to be 1 µg/mL (≈ 0.627 µM).
Take `CN[C@H](CC(C)C)C(=O)N[C@H]1C(=O)N[C@@H](CC(=O)NC(=O)N[C@@H](C)c2ccccc2)C(=O)N[C@H]2C(=O)N[C@@H]3C(=O)N[C@H](C(=O)N[C@H](C(=O)NC4C5CC6CC(C5)CC4C6)c4cc(O)cc(O)c4-c4cc3ccc4O)[C@H](O)c3ccc(c(Cl)c3)Oc3cc2cc(c3OC2O[C@H](COC(=O)N[C@@H](C)c3ccccc3)[C@@H](O)[C@H](O)[C@H]2O)Oc2ccc(cc2Cl)[C@H]1O` (stereo partly drawn) [Compound 75]: in test [1], the MIC, E FC 848 is 2 µg/mL (≈ 1.15 µM). Moreover, the MIC, E FCM 752 in test [2] was 2 µg/mL (≈ 1.15 µM). Also, the “MIC, SE 831” value in test [3] was 1. In test [4], this molecule yielded an MIC, S PNE 1195 of 1 µg/mL (≈ 0.577 µM). In test [5], this molecule yielded an MIC, S PYO 712 of 0.25 µg/mL (≈ 0.144 µM). The “MIC, SE 835” value in [6] is given as 2. Moreover, the MIC, E FC 101 in [7] was 2 µg/mL (≈ 1.15 µM). The MIC, SA 100 in test [8] worked out at 4 µg/mL (≈ 2.31 µM). In test [9], this molecule showed an MIC, SA 2012 of 4 µg/mL (≈ 2.31 µM). The MIC, E FCM 750 in test [10] was 0.5 µg/mL (≈ 0.288 µM). For the same molecule, in [11], the MIC, SA 757 turned out to be 2 µg/mL (≈ 1.15 µM).
As for `CN[C@H](CC(C)C)C(=O)N[C@H]1C(=O)N[C@@H](CC(=O)NC(=O)N[C@@H](C)c2ccccc2)C(=O)N[C@H]2C(=O)N[C@@H]3C(=O)N[C@H](C(=O)N[C@H](C(=O)NC4C5CC6CC(C5)CC4C6)c4cc(O)cc(O)c4-c4cc3ccc4O)[C@H](O)c3ccc(c(Cl)c3)Oc3cc2cc(c3OC2O[C@H](CO)[C@@H](O)[C@H](O)[C@H]2O)Oc2ccc(cc2Cl)[C@H]1O` (stereo partly drawn) [Compound 76], in test [1], the MIC, E FC 848 was 8 µg/mL (≈ 5.04 µM). This molecule displayed an MIC, E FCM 752 in test [2] of 8 µg/mL (≈ 5.04 µM). Moreover, in test [3], the “MIC, SE 831” value is 1. Besides, the MIC, S PNE 1195 in test [4] stood at 0.25 µg/mL (≈ 0.158 µM). This molecule also displayed an MIC, S PYO 712 in [5] of 0.06 µg/mL (≈ 0.0378 µM). In test [6], the “MIC, SE 835” value came to 1. Moreover, in test [7], the MIC, E FC 101 stood at 2 µg/mL (≈ 1.26 µM). Moreover, in test [8], the MIC, SA 100 was 2 µg/mL (≈ 1.26 µM). The MIC, SA 2012 in test [9] is 4 µg/mL (≈ 2.52 µM). This molecule registered an MIC, E FCM 750 in [10] of 0.5 µg/mL (≈ 0.315 µM). In [11], this molecule returned an MIC, SA 757 of 2 µg/mL (≈ 1.26 µM).

The record behind these values is patent publication US20120129763A1, “NOVEL SEMI-SYNTHETIC GLYCOPEPTIDES AS ANTIBACTERIAL AGENTS” (BIOMARIN PHARMACEUTICAL INC., priority 2007, published 2012).
